In patent US8815840B2, “Carbazole and carboline kinase inhibitors” (Bristol-Myers Squibb Company, priority 2008, dated 2014) one finds IC50 data, which are given here for 14 molecules.

pIC50: −log10 of the molar value.

Usually pIC50 stands for the IC50 on a negative log10 scale, so that one unit is a factor of ten.

In this assay the target is JAK2 (Homo sapiens (Human), UniProt O60674). Briefly: JAK2 Tyrosine Kinase Assay. Type of assay: biochemical. The settings on record: ATP 30 μM; JAK2 1 nM; 60 min at room temperature. The procedure: JAK2 Tyrosine Kinase Assay
The assays were performed in V-bottom 384-well plates. […] The reaction was initiated by the combination of JAK2 with substrates and test compounds. The reaction was incubated at room temperature for 60 min. and terminated by adding 45 μl of 35 mM EDTA to each sample. The reaction mixture was analyzed on the Caliper LABCHIP® 3000 by electrophoretic separation of the fluorescent substrate and phosphorylated product. […] Compounds were dissolved at 10 mM in dimethylsulfoxide (DMSO) and evaluated at eleven concentrations, each in duplicate. IC50 values were derived by non-linear regression analysis

JAK2, sequence (O60674 whole entry): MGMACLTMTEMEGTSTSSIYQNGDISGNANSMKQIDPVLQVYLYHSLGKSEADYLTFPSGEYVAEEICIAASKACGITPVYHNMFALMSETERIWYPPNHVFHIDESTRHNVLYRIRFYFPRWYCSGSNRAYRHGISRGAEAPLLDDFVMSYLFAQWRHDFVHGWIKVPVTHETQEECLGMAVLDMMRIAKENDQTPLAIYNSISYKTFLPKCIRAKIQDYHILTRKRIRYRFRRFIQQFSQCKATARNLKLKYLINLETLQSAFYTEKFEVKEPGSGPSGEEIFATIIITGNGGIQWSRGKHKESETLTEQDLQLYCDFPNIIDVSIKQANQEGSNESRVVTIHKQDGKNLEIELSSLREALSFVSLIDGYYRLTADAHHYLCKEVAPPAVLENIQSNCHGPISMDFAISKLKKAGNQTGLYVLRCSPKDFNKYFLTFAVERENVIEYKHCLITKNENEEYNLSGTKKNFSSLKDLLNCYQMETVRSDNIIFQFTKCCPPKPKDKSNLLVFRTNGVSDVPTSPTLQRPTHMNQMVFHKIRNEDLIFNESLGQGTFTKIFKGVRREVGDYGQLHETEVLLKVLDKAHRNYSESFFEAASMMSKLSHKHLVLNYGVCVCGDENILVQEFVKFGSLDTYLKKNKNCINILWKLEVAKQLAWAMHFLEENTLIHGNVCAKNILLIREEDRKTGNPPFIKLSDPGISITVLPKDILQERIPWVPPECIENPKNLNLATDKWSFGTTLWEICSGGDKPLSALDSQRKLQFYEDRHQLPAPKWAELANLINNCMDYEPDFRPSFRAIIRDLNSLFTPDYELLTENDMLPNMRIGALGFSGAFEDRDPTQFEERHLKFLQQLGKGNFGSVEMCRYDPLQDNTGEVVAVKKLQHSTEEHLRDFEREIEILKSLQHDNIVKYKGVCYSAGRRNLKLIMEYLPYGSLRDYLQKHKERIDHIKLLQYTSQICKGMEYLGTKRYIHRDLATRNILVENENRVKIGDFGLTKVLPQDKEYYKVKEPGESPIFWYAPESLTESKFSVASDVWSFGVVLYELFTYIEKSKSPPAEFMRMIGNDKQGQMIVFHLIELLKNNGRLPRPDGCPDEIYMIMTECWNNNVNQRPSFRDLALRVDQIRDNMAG

Consider `NC(=O)c1cc(-c2cnc(N3CCOCC3)nc2)cc2c1[nH]c1cc(C(=O)N3CCOCC3)ccc12` [Example 579, 7-(4-morpholinylcarbonyl)-3-(2-(4-morpholinyl)-5-pyrimidinyl)-9H-carbazole-1-carboxamide], for which the pIC50 is 6.97.
Take `NC(=O)c1cc(-c2cccc(Cl)c2)cc2c1[nH]c1ccc(C(=O)N3CCOCC3)cc12` [Example 15, 3-(3-chlorophenyl)-6-(morpholine-4-carbonyl)-9H-carbazole-1-carboxamide]: the pIC50 was 9.00.
For `COc1ccc(-c2cc(C(N)=O)c3[nH]c4ccc(C(=O)N5CCC[C@H](O)C5)cc4c3c2)cc1F` [Example 190, (S)-3-(3-fluoro-4-methoxyphenyl)-6-(3-hydroxypiperidine-1-carbonyl)-9H-carbazole-1-carboxamide], the pIC50 was 8.70.
Regarding `Cc1cc(-c2cc(C(N)=O)c3[nH]c4cc(C5CCN(C(=O)OC(C)(C)C)CC5)ccc4c3c2)ccc1CN1CCOCC1` [Example 486, tert-Butyl 4-(8-carbamoyl-6-(3-methyl-4-(morpholinomethyl)phenyl)-9H-carbazol-2-yl)piperidine-1-carboxylate], the pIC50 was 6.09.
In the case of `CN1CCN(C(=O)c2ccc3c(c2)[nH]c2c(C(N)=O)cc(-c4ccccc4)cc23)CC1` [Example 80, 7-((4-methyl-1-piperazinyl)carbonyl)-3-phenyl-9H-carbazole-1-carboxamide] it was 8.22; in that of `CNC(=O)c1cc(-c2ccc(OC)cc2)nc2c1[nH]c1cc(OC)ccc12` [Example 128, 7-Methoxy-2-(4-methoxyphenyl)-N-methyl-5H-pyrido[3,2-b]indole-4-carboxamide], 5.91; in that of `NC(=O)c1cc(-c2ccc(OCCN3CCOCC3)c(Cl)c2)nc2c1[nH]c1cc(N3CCOCC3)ccc12` [Example 353, 2-(3-Chloro-4-(2-morpholinoethoxy)phenyl)-7-morpholino-5H-pyrido[3 ,2-b]indole-4-carboxamide], 9.00.
As for `COc1cc(-c2cc(C(N)=O)c3[nH]c4ccc(C(=O)N5CCOC(CO)C5)cc4c3c2)cc(OC)c1OC` (centres unmarked) [Example 183, 6-(2-(hydroxymethyl)morpholine-4-carbonyl)-3-(3,4,5-trimethoxyphenyl)-9H-carbazole-1-carboxamide], the figure is 6.80; as for `Cn1ccc2cc(-c3cc(C(N)=O)c4[nH]c5cc(C(=O)N6CCOCC6)ccc5c4n3)ccc21` [Example 448, 2-(1-methyl-1H-indol-5-yl)-7-(morpholine-4-carbonyl)-5H-pyrido[3,2-b]indole-4-carboxamide], 9.00.
As for `COc1ccc(-c2cc(C(N)=O)c3[nH]c4cc(N5CCOCC5)ccc4c3n2)cc1F` [Example 344, 2-(3-fluoro-4-methoxyphenyl)-7-morpholino-5H-pyrido[3,2-b] indole-4-carboxamide], the figure is 9.00.
With `NC(=O)c1cc(-c2ccc(F)c(F)c2)nc2c1[nH]c1cc(C(=O)N3CCOCC3)ccc12` [Example 216, 2-(3,4-difluorophenyl)-7-(4-morpholinylcarbonyl)-5H-pyrido[3,2-b]indole-4-carboxamide], the pIC50 was 8.15.
As for `NC(=O)c1cc(N2CCC(N)CC2)nc2c1[nH]c1cc(C(=O)N3CCOCC3)ccc12` [Example 405, 2-(4-aminopiperidin-1-yl)-7-(morpholine-4-carbonyl)-5H-pyrido[3,2-b]indole-4-carboxamide], the figure is 6.20; as for `COc1ccc(-c2cc(C(N)=O)c3[nH]c4cc(C(=O)N5CCN(C)CC5)ccc4c3c2)cc1F` [Example 79, 3-(3-fluoro-4-methoxyphenyl)-7-((4-methyl-1-piperazinyl)carbonyl)-9H-carbazole-1-carboxamide], 8.22.
In the case of `N#Cc1cc(-c2cc(C(N)=O)c3[nH]c4cc(C(=O)N5CCOCC5)ccc4c3c2)ccc1F` [Example 563, 3-(3-cyano-4-fluorophenyl)-7-(4-morpholinylcarbonyl)-9H-carbazole-1-carboxamide], the negative-log IC50 (pIC50) is 6.00.
